Results taken from patent publication US7304174B2, “CaSR antagonist” (Japan Tobacco Inc., priority 2003, dated 2007).

Test system: PTH secretion
Assay: Concomitant administration of test compound and estrogen: blood PTH with time
Format: in vivo, ovariectomized rats
Conditions: for PTH (1–84) concentration 0.25 hr: day 16, 0.25 hr; for PTH (1–84) concentration 0.5 hr: day 16, 0.5 hr; for PTH (1–84) concentration 1 hr: day 16, 1 hr; for PTH (1–84) concentration 2 hr: day 16, 2 hr; for PTH (1–84) concentration 4 hr: day 16, 4 hr; for PTH (1–84) concentration 0 hr: day 16, immediately before oral administration
Protocol: The 13-week-old ovariectomized rats were divided into 4 groups of a control group (Group A), an estrogen administration group (Group B), a test compound administration group (Group C), and a test compound and estrogen concomitant administration group (Group D). One sham control group (E group) subjected to a sham surgery was also established. Estradiol was dissolved in 5% benzyl alcohol-corn oil and subcutaneously administered to an estrogen administration groups (Group B and Group D) at the dose of 10 μg/kg. 5% Benzyl alcohol-corn oil was subcutaneously administered to groups (Group A and Group C) free from administration of estrogen. The compound of Example 1-1 was suspended in 0.5% methyl cellulose solution and orally administered to groups (Group C and Group D) to be administered with the test compound at the dose of 3 mg/kg. As regards the groups (Group A and Group B) free from administration of the test compound, 0.5% methyl cellulose solution was orally administered.
In addition, blood was drawn with time for the measurement of blood PTH at day 16 of administration. The blood was drawn in each group from the tail vein immediately before oral administration and 0.25, 0.5, 1, 2 and 4 hr later, and serum was obtained. For serum PTH measurement, a commercially available ELISA kit (“rat intact PTH ELISA kit”, Immutopics) was used.

[1] = Group D concomitant with estradiol
[2] = exclusive administration (Group B estradiol; Group C Example 1-1 3 mg/kg oral)

In the case of `Cc1ccc(CC(C)(C)NC[C@@H](O)CO[C@H](C)c2ccccc2-c2ccc(C(=O)O)c(C)c2)cc1F` [Example 1-1, 2′-[(1R)-[(2R)-3-[[1-(3-Fluoro-4-methylphenyl)-2-methylpropan-2-yl]amino]-2-hydroxypropoxy]ethyl]-3-methylbiphenyl-4-carboxylic acid], the “Change of blood PTH with time” value (Table 66, Example 1-1 and estrogen concomitant administration) is reported as “a transitional increase was observed”, the “Change of blood PTH with time” value (Table 66, exclusive administration) is reported as “a transitional increase was observed” and the “PTH (1–84) concentration 0.25 hr” value [1] is reported as 407.35 ± 134.53 pg/mL. For the same compound, the “PTH (1–84) concentration 0.25 hr” value [2] was 371.21 ± 77.74 pg/mL, the “PTH (1–84) concentration 0.5 hr” value [1] was 418.87 ± 154.78 pg/mL and the “PTH (1–84) concentration 0.5 hr” value [2] was 370.78 ± 98.28 pg/mL. The “PTH (1–84) concentration 1 hr” value [1] was 279.76 ± 117.98 pg/mL, the “PTH (1–84) concentration 1 hr” value [2] was 177.39 ± 96.06 pg/mL and the “PTH (1–84) concentration 2 hr” value [1] was 115.50 ± 74.98 pg/mL. For the same compound, the “PTH (1–84) concentration 2 hr” value [2] was 117.51 ± 123.12 pg/mL, the “PTH (1–84) concentration 4 hr” value [1] was 58.84 ± 16.75 pg/mL and the “PTH (1–84) concentration 4 hr” value [2] was 56.50 ± 12.29 pg/mL. The “PTH (1–84) concentration 0 hr” value (Group D: Example 1-1 3 mg/kg oral and estradiol 10 μg/kg s.c. concomitant) was 27.12 ± 4.58 pg/mL and the “PTH (1–84) concentration 0 hr” value (exclusive administration (Group B estradiol 10 μg/kg s.c.; Group C Example 1-1 3 mg/kg oral)) was 31.19 ± 16.28 pg/mL.
